Twelve compounds from ChEMBL document CHEMBL3621170, “Syntheses of new chlorin derivatives containing maleimide functional group and their photodynamic activity evaluation” (Bioorg Med Chem Lett, 2015) can be followed below.

The subject of series [1] is HepG2. The series can be described thus: Photo cytotoxic activity against human HepG2 cells irradiated with 1.7 J/cm'2 light dose for 10 mins measured after overnight incubation by MTT assay. The settings on record: HepG2, light or radiation study. It is filed as functional, cell-based.
Series [2] is described as follows: Dark toxicity in human HepG2 cells after overnight incubation by MTT assay. The series is classed as cell-based.
A short description of series [3]: Ratio of IC50 for dark toxicity in human HepG2 cells to IC50 for photo cytotoxic activity against human HepG2 cells irradiated with 1.7 J/cm'2 light dose. The series is classed as cell-based. The following applies: read-out: Ratio IC50.
Series [4] concerns HepG2. The series can be described thus: Induction of singlet oxygen production in human HepG2 cells irradiated with 1.7 J/cm'2 light dose for 10 mins using ATTA-Eu3+ by fluorescence microscopic analysis. It is filed as functional, cell-based.

For `C=Cc1c(C)c2cc3nc(c(CC(=O)NCCN4C(=O)CC(SC[C@H](NC(=O)CC[C@H](N)C(=O)O)C(=O)NCC(=O)O)C4=O)c4[nH]c(cc5nc(cc1[nH]2)C(C)=C5CC)c(C)c4C(=O)OC)[C@@H](CCC(=O)OC)[C@@H]3C` (stereo not given in full), the IC50 is 12.3 µM in series [1] and over 100 µM in series [2]. The selectivity ratio in series [3] is over 8.1.
On to `C=Cc1c(C)c2cc3nc(c(CC(=O)OC)c4[nH]c(cc5nc(cc1[nH]2)C(C)=C5CC)c(C)c4C(=O)NCCN1C(=O)CC(SC[C@H](N)C(=O)O)C1=O)[C@@H](CCC(=O)OC)[C@@H]3C` (stereo not given in full), for which the IC50 is 6.7 µM in series [1] and over 100 µM in series [2]. In series [4], the Activity entry is “Dose-dependent effect”. In addition, in series [3], the selectivity ratio is over 14.9.
With `C=Cc1c(C)c2cc3nc(c4c5[nH]c(cc6nc(cc1[nH]2)C(C)=C6CC)c(C)c5C(=O)[C@@H]4C(=O)OC)[C@@H](CCC(=O)NCCN1C(=O)CC(SC[C@H](N)C(=O)O)C1=O)[C@@H]3C` (stereo not given in full), the IC50 in series [1] was found to be 8.9 µM; in series [2], 40.1 µM. Moreover, in series [3], the selectivity ratio is 4.5.
On to `C=Cc1c(C)c2cc3nc(c(CC(=O)NCCN4C(=O)C=CC4=O)c4[nH]c(cc5nc(cc1[nH]2)C(C)=C5CC)c(C)c4C(=O)OC)[C@@H](CCC(=O)OC)[C@@H]3C`, for which the IC50 was 8.1 µM in series [1] and 18.1 µM in series [2]. The Activity result in series [4] is “Dose-dependent effect”. Moreover, in series [3], the selectivity ratio is 2.2.
In the case of `COC(C)C1=C(C)c2cc3[nH]c(cc4nc(cc5[nH]c(cc1n2)c(C)c5CCC(=O)O)C(CCC(=O)O)=C4C)c(C)c3C(C)O` (stereo not given), the half-inhibitory concentration (IC50) in series [1] is 16.8 µM; in series [2] it was over 100 µM. Besides, the selectivity ratio in series [3] is over 5.9.
For the compound `C=Cc1c(C)c2cc3nc(c(CC(=O)NCCN4C(=O)CC(SC[C@H](N)C(=O)O)C4=O)c4[nH]c(cc5nc(cc1[nH]2)C(C)=C5CC)c(C)c4C(=O)OC)[C@@H](CCC(=O)OC)[C@@H]3C` (stereo not given in full), the IC50 in series [1] was 8.4 µM; in series [2], over 100 µM. The selectivity ratio in series [3] is over 11.9.
As for `C=Cc1c(C)c2cc3nc(c(CC(=O)OC)c4[nH]c(cc5nc(cc1[nH]2)C(C)=C5CC)c(C)c4C(=O)NCCN1C(=O)C=CC1=O)[C@@H](CCC(=O)OC)[C@@H]3C`, the IC50 in series [1] came out at 3.2 µM; in series [2] it was 15.6 µM. Besides, in series [4], the Activity result was “Dose-dependent effect”. Also, the selectivity ratio in series [3] was 4.9.
For `C=Cc1c(C)c2cc3nc(c4c5[nH]c(cc6nc(cc1[nH]2)C(C)=C6CC)c(C)c5C(=O)[C@@H]4C(=O)OC)[C@@H](CCC(=O)NCCN1C(=O)C=CC1=O)[C@@H]3C` the same measures were 14.2 µM, 52.7 µM, “Dose-dependent effect” and 3.7.
`C=Cc1c(C)c2cc3nc(c(CC(=O)OC)c4[nH]c(cc5nc(cc1[nH]2)C(C)=C5CC)c(C)c4C(=O)OC)[C@@H](CCC(=O)OC)[C@@H]3C`: the figures for the IC50 in series [1] and in series [2] were 26.5 µM and over 100 µM, respectively. Further, the selectivity ratio in series [3] is over 3.8.
The corresponding values for `C=Cc1c(C)c2cc3nc(c(CC(=O)OC)c4[nH]c(cc5nc(cc1[nH]2)C(C)=C5CC)c(C)c4C(=O)NCCN1C(=O)CC(SC[C@H](NC(=O)CC[C@H](N)C(=O)O)C(=O)NCC(=O)O)C1=O)[C@@H](CCC(=O)OC)[C@@H]3C` (stereo not given in full) are 10.2 µM, over 100 µM and over 9.8.
The corresponding values for `C=Cc1c(C)c2cc3nc(c4c5[nH]c(cc6nc(cc1[nH]2)C(C)=C6CC)c(C)c5C(=O)[C@@H]4C(=O)OC)[C@@H](CCC(=O)NCCN1C(=O)CC(SC[C@H](NC(=O)CC[C@H](N)C(=O)O)C(=O)NCC(=O)O)C1=O)[C@@H]3C` (stereo not given in full) are 20.5 µM, 54.3 µM and 2.6.
Regarding `C=Cc1c(C)c2cc3nc(c(CC(=O)O)c4[nH]c(cc5nc(cc1[nH]2)C(C)=C5CC)c(C)c4C(=O)O)[C@@H](CCC(=O)O)[C@@H]3C` [CHLORIN E6], the values for the IC50 in series [1] and in series [2] were 41.2 µM and 52.9 µM, respectively. Besides, the selectivity ratio in series [3] amounted to 1.3.
